Data as given in article PMC8776995 (Frontiers in Chemistry, 2022).
Several values for one entry are separate records, joined by “and”; a condition that tells them apart may be missing. Equal values may be shown once. Read-outs that look alike come from different tables or passages of the source.

What was measured:
H1975 cells = assay: CCK-8 antiproliferation assay, H1975; details: for Inhibitory efficacy: H1975 cells; for Inhibitory efficacy / inhibition at 2 µM / inhibition at 4 µM / inhibition at 8 µM / inhibition at 16 µM: given as fraction, Repeat 1-3; for IC50 / inhibition at 2 µM / inhibition at 4 µM / inhibition at 8 µM / inhibition at 16 µM: Homo sapiens; for IC50: NCI-H1975, 48 h; for inhibition at 2 µM / inhibition at 4 µM / inhibition at 8 µM / inhibition at 16 µM: NCI-H1975, read-out: Inhibitory efficacy, H1975 cells
Method: The compounds were dissolved in DMSO to make a 20 μM stock solution and diluted to the concentration of working solutions with complete growth medium before administration.
Cells were seeded in 96-well plates: 3,000–5,000 cells/well in 100 ul. One day after seeding, the test compounds at concentration between 1.0 and 16.0 μ M or 0.1% DMSO (as control) were added to cells in triplicate. 48 h later, CCK-8 was added and incubated the plate for 1–4 h in the incubator. The absorbance at 450 nm were measured using a microplate reader (Bio-Tek).

A549 cells = assay: CCK-8 antiproliferation assay, A549; details: for Inhibitory efficacy: A549 cells
H460 cells = assay: CCK-8 antiproliferation assay, H460; details: for Inhibitory efficacy: H460 cells; for IC50: NCI-H460, 48 h
PC-9 cells = assay: CCK-8 antiproliferation assay, PC-9; details: for IC50: PC-9, 48 h, read-out: IC50 (μM) PC-9; for inhibition at 4 µM: PC-9, read-out: Inhibitory efficacy, PC-9, 4uM, single repeats (Repeat 1-3), given as fraction; for Inhibitory efficacy: single repeats (Repeat 1-3), given as fraction
PC-9 xenograft = assay: In vivo antitumor activity, PC-9 xenograft in NSG mice; set-up: species or system mouse
Method: The mouse body mass was recorded as well.

wild-type EGFR = wild-type EGFR (Homo sapiens, UniProt P00533); assay: EGFR kinase assay (ELISA); details: for A450: raw ELISA absorbance
[1] = 1uM, given as fraction, Repeat 1-3
[2] = 2uM, given as fraction, Repeat 1-3
[3] = 4uM, given as fraction, Repeat 1-3
[4] = 8uM, given as fraction, Repeat 1-3
[5] = 16uM, given as fraction, Repeat 1-3
[6] = Homo sapiens, NCI-H460, read-out: Inhibitory efficacy, H460 cells, 2uM, given as fraction, Repeat 1-3

Chain of wild-type EGFR (P00533 25-1210): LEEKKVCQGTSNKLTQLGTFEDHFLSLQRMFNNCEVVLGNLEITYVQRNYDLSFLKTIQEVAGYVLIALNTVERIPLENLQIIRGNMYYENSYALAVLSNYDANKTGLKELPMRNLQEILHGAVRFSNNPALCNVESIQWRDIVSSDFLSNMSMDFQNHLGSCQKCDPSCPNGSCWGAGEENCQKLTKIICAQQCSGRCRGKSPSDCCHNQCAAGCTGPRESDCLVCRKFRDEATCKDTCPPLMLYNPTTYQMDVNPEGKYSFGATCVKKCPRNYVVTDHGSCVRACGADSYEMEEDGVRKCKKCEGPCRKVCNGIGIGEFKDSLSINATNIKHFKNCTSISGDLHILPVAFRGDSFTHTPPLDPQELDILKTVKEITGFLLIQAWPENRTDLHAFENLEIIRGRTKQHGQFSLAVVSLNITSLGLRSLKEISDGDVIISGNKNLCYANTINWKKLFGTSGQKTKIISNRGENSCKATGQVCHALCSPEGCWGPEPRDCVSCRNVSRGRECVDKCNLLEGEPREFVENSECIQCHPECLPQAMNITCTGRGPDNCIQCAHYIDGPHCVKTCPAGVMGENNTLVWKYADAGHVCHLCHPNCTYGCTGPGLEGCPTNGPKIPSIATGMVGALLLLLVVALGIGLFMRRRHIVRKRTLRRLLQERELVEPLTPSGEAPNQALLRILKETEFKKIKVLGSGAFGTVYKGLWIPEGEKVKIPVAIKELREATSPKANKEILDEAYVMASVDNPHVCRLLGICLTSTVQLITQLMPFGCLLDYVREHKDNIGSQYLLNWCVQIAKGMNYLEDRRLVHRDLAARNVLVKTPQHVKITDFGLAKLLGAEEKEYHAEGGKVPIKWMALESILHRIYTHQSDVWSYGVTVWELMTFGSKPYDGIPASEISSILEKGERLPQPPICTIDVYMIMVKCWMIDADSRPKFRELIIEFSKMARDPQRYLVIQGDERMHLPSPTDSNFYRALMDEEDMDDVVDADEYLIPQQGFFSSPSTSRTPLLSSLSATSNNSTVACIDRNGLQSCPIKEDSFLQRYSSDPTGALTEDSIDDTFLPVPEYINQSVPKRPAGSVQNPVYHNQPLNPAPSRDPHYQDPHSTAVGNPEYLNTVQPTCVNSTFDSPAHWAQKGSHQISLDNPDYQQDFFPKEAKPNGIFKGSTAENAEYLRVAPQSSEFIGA

With `C#Cc1cccc(Nc2ncnc3cc(OCCOC)c(OCCOC)cc23)c1` [Erlotinib, reference compound] the Inhibitory efficacy (H1975 cells; 2uM) was 0.1989 and 0.1819, the Inhibitory efficacy (H1975 cells; 4uM) was 0.3103 and 0.3631 and the Inhibitory efficacy (H1975 cells; 8uM) was 0.4556 and 0.4424. The Inhibitory efficacy (H1975 cells; 16uM) was 0.4821 and 0.5651, the IC50 (H1975 cells; read-out: IC50 (μM) H1975) was 12.7 ± 2.76 µM and the inhibition at 2 µM (H1975 cells; 2uM) was 20.1%. For the same compound, the inhibition at 4 µM (H1975 cells; 4uM) was 30.1%, the inhibition at 8 µM (H1975 cells; 8uM) was 42.2% and the inhibition at 16 µM (H1975 cells; 16uM) was 55.9%. For the same compound, the Inhibitory efficacy (A549 cells; [1]) was 0.1312 and 0.1478, the Inhibitory efficacy (A549 cells; [2]) was 0.2342 and 0.2336 and the Inhibitory efficacy (A549 cells; [3]) was 0.4482 and 0.3384. For the same compound, the Inhibitory efficacy (A549 cells; [4]) was 0.471 and 0.4975, the Inhibitory efficacy (A549 cells; [5]) was 0.5265 and 0.5389 and the inhibition at 1 µM (A549 cells; Homo sapiens, A549, read-out: Inhibitory efficacy, A549 cells, 1uM, given as fraction, Repeat 1-3) was 22.3%. It also gave an inhibition at 2 µM (A549 cells; Homo sapiens, A549, read-out: Inhibitory efficacy, A549 cells, 2uM, given as fraction, Repeat 1-3) of 25.5%, an inhibition at 4 µM (A549 cells; Homo sapiens, A549, read-out: Inhibitory efficacy, A549 cells, 4uM, given as fraction, Repeat 1-3) of 39% and an inhibition at 8 µM (A549 cells; Homo sapiens, A549, read-out: Inhibitory efficacy, A549 cells, 8uM, given as fraction, Repeat 1-3) of 47.8%. The inhibition at 16 µM (A549 cells; Homo sapiens, A549, read-out: Inhibitory efficacy, A549 cells, 16uM, given as fraction, Repeat 1-3) was 56%, the Inhibitory efficacy (H460 cells; [1]) was 0.09689 and 0.1206 and the Inhibitory efficacy (H460 cells; [2]) was 0.2063 and 0.1995. For the same compound, the Inhibitory efficacy (H460 cells; [3]) was 0.3477 and 0.3746, the Inhibitory efficacy (H460 cells; [4]) was 0.4407 and 0.5067 and the Inhibitory efficacy (H460 cells; [5]) was 0.4651 and 0.4816. For the same compound, the IC50 (H460 cells; Homo sapiens, read-out: IC50 (μM) H460) was 13.3 ± 1.5 µM, the inhibition at 1 µM (H460 cells; Homo sapiens, NCI-H460, read-out: Inhibitory efficacy, H460 cells, 1uM, given as fraction, Repeat 1-3) was 6.64% and the inhibition at 2 µM (H460 cells; [6]) was 14.3%. For the same compound, the inhibition at 4 µM (H460 cells; Homo sapiens, NCI-H460, read-out: Inhibitory efficacy, H460 cells, 4uM, given as fraction, Repeat 1-3) was 30%, the inhibition at 8 µM (H460 cells; Homo sapiens, NCI-H460, read-out: Inhibitory efficacy, H460 cells, 8uM, given as fraction, Repeat 1-3) was 47.8% and the inhibition at 16 µM (H460 cells; Homo sapiens, NCI-H460, read-out: Inhibitory efficacy, H460 cells, 16uM, given as fraction, Repeat 1-3) was 47.2%. The IC50 (PC-9 cells; Homo sapiens) was 0.21 ± 0.07 µM, the inhibition at 1 µM (PC-9 cells; Homo sapiens, PC-9, read-out: Inhibitory efficacy, PC-9, 1uM, single repeats (Repeat 1-3), given as fraction) was 60.2% and the inhibition at 2 µM (PC-9 cells; Homo sapiens, PC-9, read-out: Inhibitory efficacy, PC-9, 2uM, single repeats (Repeat 1-3), given as fraction) was 62.2%. For the same compound, the inhibition at 4 µM (PC-9 cells; Homo sapiens) was 73.2%, the inhibition at 8 µM (PC-9 cells; Homo sapiens, PC-9, read-out: Inhibitory efficacy, PC-9, 8uM, single repeats (Repeat 1-3), given as fraction) was 72.2% and the inhibition at 16 µM (PC-9 cells; Homo sapiens, PC-9, read-out: Inhibitory efficacy, PC-9, 16uM, single repeats (Repeat 1-3), given as fraction) was 77.6%. For the same compound, the Inhibitory efficacy (PC-9 cells; PC-9, 1uM, 1 µM) was 0.6098 and 0.6255, the Inhibitory efficacy (PC-9 cells; PC-9, 2uM, 2 µM) was 0.6294 and 0.6255 and the Inhibitory efficacy (PC-9 cells; PC-9, 4uM, 4 µM) was 0.6922 and 0.7284. For the same compound, the Inhibitory efficacy (PC-9 cells; PC-9, 8uM, 8 µM) was 0.7167 and 0.7137, the Inhibitory efficacy (PC-9 cells; PC-9, 16uM, 16 µM) was 0.7578 and 0.7647 and the tumor volume mean (PC-9 xenograft; Day13, group mean) was 75.6221 mm3. For the same compound, the tumor length (PC-9 xenograft; Day13, individual animals) was 5.32 mm and 6.15 mm and 5.63 mm and 5.6 mm and 6.4 mm and 5.64 mm and 7.11 mm, the tumor volume (PC-9 xenograft; Day13, individual animals) was 68.645 mm3 and 111.069 mm3 and 86.3969 mm3 and 32.368 mm3 and 70.688 mm3 and 54.5952 mm3 and 105.592 mm3 and the tumor width (PC-9 xenograft; Day13, individual animals) was 5.08 mm and 6.01 mm and 5.54 mm and 3.4 mm and 4.7 mm and 4.4 mm and 5.45 mm. The tumor volume mean (PC-9 xenograft; Day15, group mean) was 46.9389 mm3, the tumor length (PC-9 xenograft; Day15, individual animals) was 5.43 mm and 5.76 mm and 4.04 mm and 4.28 mm and 5.96 mm and 6.09 mm and 6.46 mm and the tumor volume (PC-9 xenograft; Day15, individual animals) was 23.7877 mm3 and 44.4813 mm3 and 30.5668 mm3 and 38.11 mm3 and 66.1086 mm3 and 70.1568 mm3 and 55.3609 mm3. The tumor width (PC-9 xenograft; Day15, individual animals) was 2.96 mm and 3.93 mm and 3.89 mm and 4.22 mm and 4.71 mm and 4.8 mm and 4.14 mm, the tumor volume mean (PC-9 xenograft; Day17, group mean) was 35.7998 mm3 and the tumor length (PC-9 xenograft; Day17, individual animals) was 4.34 mm and 4.5 mm and 4.68 mm and 3.6 mm and 3.5 mm and 5.64 mm and 5.39 mm. For the same compound, the tumor volume (PC-9 xenograft; Day17, individual animals) was 40.4974 mm3 and 44.957 mm3 and 28.665 mm3 and 15.138 mm3 and 14.7175 mm3 and 67.7082 mm3 and 38.9158 mm3, the tumor width (PC-9 xenograft; Day17, individual animals) was 4.32 mm and 4.47 mm and 3.5 mm and 2.9 mm and 4.9 mm and 3.8 mm and the tumor volume mean (PC-9 xenograft; Day19, group mean) was 14.0038 mm3. For the same compound, the tumor length (PC-9 xenograft; Day19, individual animals) was 2.66 mm and 3.12 mm and 2.47 mm and 0 mm and 3.83 mm and 4.36 mm and 4.91 mm, the tumor volume (PC-9 xenograft; Day19, individual animals) was 8.246 mm3 and 6.24 mm3 and 5.446 mm3 and 0 mm3 and 21.1079 mm3 and 22.4629 mm3 and 34.5234 mm3 and the tumor width (PC-9 xenograft; Day19, individual animals) was 2.49 mm and 2 mm and 2.1 mm and 0 mm and 3.32 mm and 3.21 mm and 3.75 mm.
For `COCCOc1cc2ncnc(Nc3cccc(-c4cn(Cc5ccccc5)nn4)c3)c2cc1OCCOC` [e1, [3-(1-Benzyl-1H-[1,2,3]triazol-4-yl)-phenyl]-[6,7-bis-(2-methoxy-ethoxy)-quinazolin-4-yl]-amine], the Inhibitory efficacy (H1975 cells; 2uM) was 0.214 and 0.1313, the Inhibitory efficacy (H1975 cells; 4uM) was 0.2001 and 0.2011 and the Inhibitory efficacy (H1975 cells; 8uM) was 0.2439 and 0.3137. The Inhibitory efficacy (H1975 cells; 16uM) was 0.3018 and 0.3516, the IC50 (H1975 cells; read-out: IC50 (μM) H1975, CCK-8, 48 h, average ± SD of three independent experiments) was greater than 100 µM and the inhibition at 2 µM (H1975 cells; 2uM) was 24.3%. For the same compound, the inhibition at 4 µM (H1975 cells; 4uM) was 28.4%, the inhibition at 8 µM (H1975 cells; 8uM) was 25.2% and the inhibition at 16 µM (H1975 cells; 16uM) was 37.9%. The IC50 (wild-type EGFR; IC50 (μM) EGFR, ELISA, 3 μmol/L ATP) was 1.34 µM, the Inhibition (wild-type EGFR; concentration 0.03 nM, one value per replicate column, 3e-05 µM) was 3.106 and 6.667 and the inhibition at 0.0003 µM (wild-type EGFR; concentration 0.3 nM, one value per replicate column) was 14.9%. It also gave an Inhibition (wild-type EGFR; concentration 0.3 nM, one value per replicate column, 0.0003 µM) of 12.7273, an inhibition at 0.003 µM (wild-type EGFR; concentration 3 nM, one value per replicate column) of 15.5% and an Inhibition (wild-type EGFR; concentration 3 nM, one value per replicate column, 0.003 µM) of 27.2727. It also gave an inhibition at 0.03 µM (wild-type EGFR; concentration 30 nM, one value per replicate column) of 28%, an Inhibition (wild-type EGFR; concentration 30 nM, one value per replicate column, 0.03 µM) of 34.5455 and an inhibition at 0.3 µM (wild-type EGFR; concentration 300 nM, one value per replicate column) of 34.2%. For the same compound, the Inhibition (wild-type EGFR; concentration 300 nM, one value per replicate column, 0.3 µM) was 43.6364, the inhibition at 3 µM (wild-type EGFR; concentration 3000 nM, one value per replicate column) was 43.5% and the Inhibition (wild-type EGFR; concentration 3000 nM, one value per replicate column, 3 µM) was 45.4545. For the same compound, the inhibition at 30 µM (wild-type EGFR; concentration 30000 nM, one value per replicate column) was 73.9%, the Inhibition (wild-type EGFR; concentration 30000 nM, one value per replicate column, 30 µM) was 80.6061 and the A450 (wild-type EGFR; concentration 0.0001 nM) was 0.408 and 0.407. For the same compound, the A450 (wild-type EGFR; concentration 0.03 nM) was 0.403 and 0.396, the A450 (wild-type EGFR; concentration 0.3 nM) was 0.384 and 0.386 and the A450 (wild-type EGFR; concentration 3 nM) was 0.383 and 0.362. The A450 (wild-type EGFR; concentration 30 nM) was 0.363 and 0.35, the A450 (wild-type EGFR; concentration 300 nM) was 0.353 and 0.335 and the A450 (wild-type EGFR; concentration 3000 nM) was 0.338 and 0.332. For the same compound, the A450 (wild-type EGFR; concentration 30000 nM) was 0.289 and 0.274, the IC50 (A549 cells; Homo sapiens, A549, 48 h, read-out: IC50 (μM) A549, CCK-8, 48 h, average ± SD of three independent experiments) was greater than 100 µM and the Inhibitory efficacy (H460 cells; [2]) was 0.09593 and 0.09213. It also gave an IC50 (H460 cells; Homo sapiens, read-out: IC50 (μM) H460, CCK-8, 48 h, average ± SD of three independent experiments) greater than 100 µM, an inhibition at 2 µM (H460 cells; [6]) of 11.9% and an IC50 (PC-9 cells; Homo sapiens) greater than 100 µM. The inhibition at 4 µM (PC-9 cells; Homo sapiens) was 13.4%, the Inhibitory efficacy (PC-9 cells; PC-9, 4uM, 4 µM) was 0.07898 and 0.104 and the melting point was 89 to 92 °C.
With `COCCOc1cc2ncnc(Nc3cccc(-c4cn(Cc5cccc(OC)c5)nn4)c3)c2cc1OCCOC` [e5] the melting point was 85 to 88 °C.
